Reference: paper PMC9534909, “BMS794833 inhibits macrophage efferocytosis by directly binding to MERTK and inhibiting its activity” (Experimental & Molecular Medicine, 2022)
Substitutions are numbered along the chain they refer to.

What was measured:
MERTK [1] = biological target: T1, MERTK (Homo sapiens, UniProt Q12866, K591R/K693R/K702R/K856R); assay: X-ray cocrystal structure at […] Å; format: binding
T1 construct: kinase domain (residues 571–864), KR mutant
T1 sequence (Q12866 571-864 K591R/K693R/K702R/K856R): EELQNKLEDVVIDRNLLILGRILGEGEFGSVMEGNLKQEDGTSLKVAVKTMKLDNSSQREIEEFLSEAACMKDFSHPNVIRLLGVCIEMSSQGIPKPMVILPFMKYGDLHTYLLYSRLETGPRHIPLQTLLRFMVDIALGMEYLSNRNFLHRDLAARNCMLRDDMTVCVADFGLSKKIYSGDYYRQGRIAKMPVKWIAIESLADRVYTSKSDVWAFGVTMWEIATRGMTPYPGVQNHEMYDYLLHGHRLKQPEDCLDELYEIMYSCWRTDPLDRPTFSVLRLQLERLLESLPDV

MERTK [2] = biological target: T2, MERTK (Homo sapiens, UniProt Q12866); assay: HTRF KinEASE-TK kinase kinetic assay; format: biochemical
T2 construct: kinase domain (residues 571–864, wild type; WT)
T2 sequence (Q12866 571-864): T1 sequence (Q12866 571-864 K591R/K693R/K702R/K856R) with R21K, R123K, R132K, R286K

Ki (MERTK [2]): 22.4 nM
Structure (SMILES): Nc1nccc(Oc2ccc(NC(=O)c3c[nH]cc(-c4ccc(F)cc4)c3=O)cc2F)c1Cl [BMS794833, N-[4-(2-amino-3-chloropyridin-4-yl)oxy-3-fluorophenyl]-5-(4-fluorophenyl)-4-oxo-1H-pyridine-3-carboxamide]
X-ray cocrystal structure at 2.16 Å (MERTK [1]): clear electron density map for BMS794833 showed that it occupied both the ATP-binding pocket and the allosteric back pocket
